Assays:
serine proteases = assay: IgG degradation by aminobenzamidine purified serine protease fraction F4 with and without PMSF; type: biochemical, Trichoderma reesei; conditions: PMSF 5 mM; pH 5.5, 37°C, 20 hours
Protocol: Serine proteases comprise a major family of proteases that have been identified as antibody degrading enzymes. Accordingly, serine proteases were purified from Trichoderma supernatant. The serine proteases were first affinity purified from fermentation culture supernatants with a p-aminobenzamidine sepharose 4 fast flow resin (GE healthcare #17-5123-10). 15 ml of the fermentation culture supernatant was batch bound to the resin in 35 ml of binding buffer (0.05 M Tris-HCL, 0.5 M NaCl, pH 7.4). After packing and washing the column with the same binding buffer, the column was eluted with 0.05 M glycine, pH 3.0. The fractions were then neutralized with 1M Tris HCL, pH 8.8.
In total 1.7 mg of protein was purified from the affinity column. When the peak fractions were run on a 4-15% SDS-PAGE gel, several major bands (˜110 kD, 53 kD, 39 kD, 29 kD) and many more minor bands were seen. The peak fraction protein mixture (F4) was then tested for protease activity by incubated a sample of the F4 with human IgG1 in sodium citrate buffer (50 mM, pH 5.5) at 37° C. for 20 hours. The samples were incubated both in the presence and absence of the serine protease inhibitor PMSF (5 mM). The incubated samples were then analyzed by immunoblotting with an anti-IgG heavy chain AP conjugate antibody (Sigma #A3188) and an anti-IgG light chain AP conjugate antibody (Sigma #A3812) diluted 1:30,000 in TBST.

[1] = test system: tryptic and chymotryptic proteases; assay: In vitro inhibitor treatment: rituximab heavy chain degradation in M44 supernatant; type: biochemical, Trichoderma reesei; conditions: 100 μM chymostatin or 1 mg/ml SBTI; M44 supernatant 6 mg/ml, pH 5.5
Protocol: Based on the knowledge that the heavy chain is cleaved by tryptic and chymotryptic proteases, inhibitors of these two enzyme classes were tested against antibody degradation both in vitro and in culture experiments utilizing an antibody producing T. reesei strain. The inhibitors soybean trypsin inhibitor (SBTI) and chymostatin were tested, as they have been previously shown in in vitro experiments to stabilize antibody heavy chains.
Chymostatin and SBTI were analyzed in vitro with culture supernatant. Supernatant from a fed batch fermentor culture was diluted to 6 mg/ml with sodium citrate buffer pH 5.5 (pH 5.5; 28° C.; 20 g/L spent grain extract, 60 g/L lactose). […] The strain was grown in Trichoderma minimal medium supplemented with 20 g/l spent grain extract and 60 g/l lactose at pH 5.5 and 28° C.
To this diluted supernatant 0.05 μg μl of rituximab, 100 μM chymostatin, 1 mg/ml SBTI, or a combination of both inhibitors was added in a total volume of 50 μl and sampled at 0, 1, and 19 hours to assess the early and late degradation of the rituximab antibody heavy chain. The resulting heavy chain products were analyzed by immunoblot using and anti-heavy chain AP conjugated antibody (Sigma #A3188) diluted 1:30,000 in TBST (FIG. 35). […] Additional fragments were generated after 19 hours, the two major products remained.

[2] = test system: SIP purified proteases (PEP2, PEP3, PEP4, PEP5, GAP1, SLP2); assay: Protease activity of SIP purified fractions against casein with inhibitors (EnzChek); type: biochemical, Trichoderma reesei; conditions: pH 5.5; for proteases inhibited: SIP, LIP, pepstatin A 60 μM, SBTI 200 μg/ml
Protocol: Protease activity was then tested against casein both in the presence and absence of protease inhibitors. Protease activity against casein was tested using the EnzChek protease assay kit (Molecular probes #E6638, green fluorescent casein substrate). The working stock solution was prepared by diluting the stock to 10 μg ml in 50 mM sodium citrate, pH 5.5. The purified protease fractions (10 μl) were diluted with […] of sodium citrate, pH 5.5. 100 μl of the diluted substrate was combined with the diluted protease fractions in a 96 well sample plate. The plate was then covered and kept at 37° C. for one to three hours. Fluorescence readings were taken at one, two, and three hours with a Varioskan fluorescent plate reader (Thermo Scientific) using 485 nm excitation and 530 nm emission.
The SIP inhibitor peptide, pepstatin A, LIP peptide, SBTI, and chymostatin were used as inhibitors. […] SIP, LIP, and pepstatin A were used at a concentration of 60 μM, and SBTI was used at a concentration of 200 μg/ml.

[3] = test system: rituximab antibody producing strain; assay: Treatment of T. reesei rituximab cultures with inhibitors; type: cell-based, Trichoderma reesei
Protocol: The effectiveness of the inhibitors was also tested with the rituximab antibody producing strain, which contains a VALEKR linker sequence and the pep1 deletion. This strain was grown in triplicate, in small flasks both in presence or absence of chymostatin, SBTI, or pepstatin A. The small shake flasks contained 50 ml of TrMM plus lactose (40 g/l), spent grain extract (20 g/l), and buffer with 100 mM PIPPS at pH 5.5. The SBTI inhibitor was added to the culture at final concentrations of either 100 μg/ml or 500 μg/ml. Chymostatin was used at 100 μM, and pepstatin A was used at 10 μM. Each of the three inhibitors was added to the cultures daily on day 2, 3, 4, and 5.
Growth of the cultures was followed daily by pH from day 2 until day 7. […] In the PIPPS buffered cultures, the pH decreased from an initial pH of 5.5 down to a pH of 4.8 after day 6. With chymostatin and pepstatin A the cultures were monitored up to day 7. On day 7 the average pH for the control bottles was 4.6, while the average pH for chymostatin treated cultures was 4.9, and the average pH of pepstatin A treated cultures was 5.0.
Culture supernatant samples (30 μl) were also collected on days 3, 4, and 5 for analysis of antibody production. The analysis was performed by immunoblots using an anti-IgG heavy chain antibody AP conjugate (Sigma #A3188) and an anti-light chain antibody AP conjugate (Sigma #A3812). Each antibody was diluted 1:30,000 in TBST. The full length rituximab heavy chain is about 51 kD, the rituximab light chain CHBI fusion is about 100 kD, and the free rituximab light chain is about 28 kD.

[4] = test system: M369 human growth hormone strain; assay: hGH production in 24 well cultures with inhibitors and supplements; type: cell-based, Trichoderma reesei; conditions: 24 well culture, pH 4.5, day 4 immunoblot
Protocol: To evaluate what inhibitors would best stabilize production of hGH, 24 well cultures of these strains were performed. The M369 human growth hormone strain (Δpep1Δtsp1Δslp1Δgap1Δgap2) was grown along with single components or with combinations of the following: trypsin and subtilisin inhibitor SBTI, the acidic protease inhibitor peptide SIP, the acidic protease inhibitor peptide LIP, the aspartic protease inhibitor pepstatin A free peptide, pepstatin A immobilized to agarose beads, the trypsin and subtilisin inhibitor BBI from lima bean, the […] chymostatin, and BSA. Three independent wells were chosen for control wells where no inhibitors or supplements were added. These two strains were grown in 3 ml of TrMM with diammonium citrate without ammonium sulfate, 100 mM PIPPS, 20 g/L spent grain extract, 40 g/L lactose adjusted to pH 4.5. The 24 well plates were shaken at 800 rpm, 85% humidity, and 28° C. The cultures were grown for 6 days and covered with an air permeable membrane.
Inhibitors were added first on day 1 and then daily beginning on day 3. 100 μl samples were taken from the culture wells beginning on day 3. The mycelium was spun down for 5 minutes at 13 k and the supernatant collected. From the culture supernatant 12 μl was loaded in a 4-20% SDS PAGE gel and immunoblotting made on nitrocellulose with mouse anti-hGH antibody (2 μg/ml) and goat anti-mouse IgG AP conjugated secondary antibody diluted 1:10,000 in TBST.
Estimating the expression levels relative to the 200 ng control sample, the control wells produced between 3-6 mg/L of hGH, the BSA (0.25%)/SIP (50 μM)/8BTI (0.2 mg/ml) treatment produced 24.5 mg/L, the SIP (50 μM)/8BTI (0.2 mg/ml) treatment produced 26.6 mg/L, and the pepstatin A beads/SBTI (0.2 mg/ml) addition yielded 24.5 mg/L of hGH. Therefore, using a combination of inhibitors and additives worked best increasing the production levels by at least 4-fold. The critical parameter was to include an aspartic protease inhibitor into the mix.

[5] = test system: aspartic and glutamic protease; assay: MAB01 heavy chain degradation by SIP purified proteases with and without SIP inhibitor peptide; type: biochemical, Trichoderma reesei; conditions: overnight 37°C, pH 4.0 and pH 5.5
Protocol: Several additional aspartic proteases were isolated from the T. reesei M277 triple protease deletion strain (pep1, tsp1, slp1). […] The M277 deletion strain was generated as described in Example 4 below. The strain was grown in Trichoderma minimal medium supplemented with 20 g/l spent grain extract, 60 g/l lactose, and 9 g/l casamino acids at pH 5.5 and 28° C. The aspartic proteases were isolated by affinity purification using the SIP peptide (Ac-Phe-Lys-Phe-(AHPPA)-Leu-Arg-NH2) (Kataoka Y. et al. 2005 FEBS Letters 579, pp 2991-2994). The SIP peptide was conjugated to NHS activated agarose resin (Pierce #26196) using the protocol provided by the manufacturer. The SIP affinity resin was used to purify proteases. Fermentation supernatant (15 ml) from the T. reesei M277 strain was then used to batch bind proteases to the resin in 35 ml buffer containing 50 mM sodium acetate, 0.2 M NaCl, pH 3.0 (from fermentation conditions pH 5.5; 28° C.; 9 g/l casaminoacids; 20 g/L spent grain extract, 60 g/L lactose). The column was washed with the same binding buffer and bound protein removed with elution buffer (50 mM Tris-HCL, 1 M NaCl, pH 8.5). […]
The SIP purified proteases were then tested for their ability to degrade the MAB01 antibody heavy chain. […] The collected samples were analyzed by immunoblotting with an anti-IgG heavy chain antibody AP conjugate (Sigma A3188) diluted 1:30,000 in TBST. […]

[6] = test system: proteases in supernatant from the 6-fold protease deletion strain M400; assay: Protease stability of proteins spiked into supernatant of the 6-fold protease deletion strain; type: biochemical, Trichoderma reesei; conditions: M400 supernatant pH 4.2, 20 hours, 37°C, 0.05 μg/μl
Protocol: The protease stability of the model proteins IGF1, hGH, and IFNα2b were analyzed by spiking them into supernatant from the 6-fold protease deletion strain (Δpep1Δtsp1Δslp1Δgap1Δgap2Δpep4) M400. The supernatant was collected from a large shake flask culture CAH15. The undiluted supernatant from the shake flask cultivation CAH15 was incubated with the purified model proteins with and without pepstatin A (50 μM) and SBTI (0.2 mg/ml) inhibitors for 20 hours at 37° C. The 5 day culture supernatant pH was around 4.2. The reaction containing 0.05 μg μl of model protein was sampled after 20 hours. 50 mM sodium citrate pH 4.0 spiked with model proteins (0.05 g 1) was used as a buffer control.
From each reaction 10 μl was loaded into an 18% SDS PAGE gel and run for 30 minutes at 200 V. The proteins in the gel were then transferred to nitrocellulose for immunoblotting. The nitrocellulose membrane was blocked for 1 hour at room temperature with 5% milk in TBST buffer. The individual blots were probed with their specific primary antibody to detect the appropriate model protein for 1 hour at room temperature on a shaker. The mouse anti-IGF1 antibody (R&D systems #mab291) was used at 2 μg/ml diluted in TBST. The mouse anti-rhGH antibody (Abeam #ab51232) was used at 2 μg/ml diluted in TBST. The mouse anti-IFNα2b antibody (Abeam #ab9386) was used at 1 μg/ml diluted in TBST. After briefly washing the blot membranes with TBST, the secondary antibody was added for 1 hour at room temperature shaking. The secondary goat anti-mouse AP conjugated antibody (Biorad #170-6520) was diluted 1:10,000 in TBST.
This same spiking experiment as was done with MAB01 to investigate its stability in the 6 protease deletion supernatant with and without inhibitors (FIG. 43). Samples were taken as described above and immunoblotted with an anti-heavy chain AP conjugated antibody (Sigma #A3188). […] There was no obvious benefit having used inhibitors. The antibody was stable in this pH 4.2 supernatant. […]

[7] = third chymostatin culture sample, 100 μM

O=S(=O)(F)Cc1ccccc1 [PMSF]
IgG degradation by F4 serine protease fraction (serine proteases): able to inhibit most of the degradation

CC(C)C[C@H](NC(=O)[C@@H](NC(=O)N[C@@H](Cc1ccccc1)C(=O)O)[C@@H]1CCN=C(N)N1)C(=O)N[C@H](C=O)Cc1ccccc1 [chymostatin]
rituximab heavy chain fragment formation [1]: inhibited the initial production of the 42 kDa fragment
proteases inhibited [2]: inhibited SLP2
inhibition of SIP purified protease activity against casein ([2]; FIG. 11): able to inhibit the SLP2 protease
rituximab heavy chain production vs untreated cultures ([3]; day 5, SBTI 100 or 500 μg/ml, chymostatin 100 μM): increased the amount of full length rituximab heavy chain produced
effect on culture growth (followed by pH) ([3]; small shake flasks, inhibitors added daily day 2-5): small reduction in growth
full length rituximab heavy chain [3, 7]: approximately 90%
heavy chain fragment [3, 7]: ~10%
effect on hGH production [4]: improved the amount of full length product observed

Ac-Phe-Lys-Phe-(AHPPA)-Leu-Arg-NH2 (FKFXLR; HELM PEPTIDE1{[ac].F.K.F.[O=C(C[C@H](O)[C@H](Cc1ccccc1)N[*:1])[*:2]].L.R.[am]}$$$$V2.0; SMILES CC(=O)N[C@@H](Cc1ccccc1)C(=O)N[C@@H](CCCCN)C(=O)N[C@@H](Cc1ccccc1)C(=O)N[C@@H](Cc1ccccc1)[C@@H](O)CC(=O)N[C@@H](CC(C)C)C(=O)N[C@@H](CCCNC(=N)N)C(N)=O) [SIP peptide]
proteases inhibited [2]: inhibited both aspartic and glutamic proteases
effect on hGH production [4]: noticeable increase in hGH amount
aspartic and glutamic protease activities against MAB01 heavy chain [5]: inhibited

IGF1: insulin-like growth factor 1, model protein
stability of model protein in supernatant without inhibitors [6]: the majority appeared to be degraded

hGH: human growth hormone, model protein
stability of model protein in supernatant without inhibitors [6]: the majority appeared to be degraded
